Experimental data: PMC9401498 (Clinical Cancer Research, 2021)
“Also recorded” adds a separate entry of the source.

System: patients with advanced and/or treatment-refractory solid tumors
Experiment: Safety and tolerability: adverse events
Type: in vivo, human
Settings: for Alanine aminotransferase increased (treatment-related AE) / Ammonia increased (treatment-related AE) / Anemia (treatment-related AE) / Aspartate aminotransferase increased (treatment-related AE) / Blood alkaline phosphatase increased (treatment-related AE) / Blood bilirubin increased (treatment-related AE) / Blood creatinine increased (treatment-related AE) / Constipation (treatment-related AE) / Decreased appetite (treatment-related AE) / Diarrhea (treatment-related AE) / Dysgeusia (treatment-related AE) / Dyspepsia (treatment-related AE) / Fatigue (treatment-related AE) / Gastroesophageal reflux disease (treatment-related AE) / Hypomagnesemia (treatment-related AE) / Hyponatremia (treatment-related AE) / Nausea (treatment-related AE) / Neuropathy peripheral (treatment-related AE) / Patients with ≥1 treatment-emergent AE / Patients with ≥1 treatment-related AE / Photophobia (treatment-related AE) / Photopsia (treatment-related AE) / Thrombocytopenia (treatment-related AE) / Vision blurred (treatment-related AE) / Vomiting (treatment-related AE) / Weight decreased (treatment-related AE) / γ-Glutamyltransferase increased (treatment-related AE) / Abdominal distension (treatment-related AE) / Activated partial thromboplastin time prolonged (treatment-related AE): TID-fasted (n = 32)
[1] = across doses and schedules, 120 patients

SMILES: O=C(Cc1cccc(OC(F)(F)F)c1)Nc1ccc(CCCCc2nnc(NC(=O)Cc3ccccn3)s2)nn1 [telaglenastat, Telaglenastat]
- Alanine aminotransferase increased (treatment-related AE) (All grades): 6 (18.8) n (%)
- Ammonia increased (treatment-related AE) (All grades): 0 n (%)
- Anemia (treatment-related AE) (All grades): 0 n (%)
- Aspartate aminotransferase increased (treatment-related AE) (All grades): 6 (18.8) n (%)
- Blood alkaline phosphatase increased (treatment-related AE) (All grades): 2 (6.3) n (%)
- Blood bilirubin increased (treatment-related AE) (All grades): 0 n (%)
- Blood creatinine increased (treatment-related AE) (All grades): 1 (3.1) n (%)
- Constipation (treatment-related AE) (All grades): 2 (6.3) n (%)
- Decreased appetite (treatment-related AE) (All grades): 0 n (%)
- Diarrhea (treatment-related AE) (All grades): 1 (3.1) n (%)
- Dysgeusia (treatment-related AE) (All grades): 1 (3.1) n (%)
- Dyspepsia (treatment-related AE) (All grades): 0 n (%)
- Fatigue (treatment-related AE) (All grades): 7 (21.9) n (%)
- Gastroesophageal reflux disease (treatment-related AE) (All grades): 0 n (%)
- Hypomagnesemia (treatment-related AE) (All grades): 0 n (%)
- Hyponatremia (treatment-related AE) (All grades): 0 n (%)
- Nausea (treatment-related AE) (All grades): 2 (6.3) n (%)
- Neuropathy peripheral (treatment-related AE) (All grades): 1 (3.1) n (%)
- Patients with ≥1 treatment-emergent AE (All grades): 30 (93.8) n (%)
- Patients with ≥1 treatment-related AE (All grades): 23 (71.9) n (%)
- Photophobia (treatment-related AE) (All grades): 1 (3.1) n (%)
- Photopsia (treatment-related AE) (All grades): 1 (3.1) n (%)
- Thrombocytopenia (treatment-related AE) (All grades): 0 n (%)
- Vision blurred (treatment-related AE) (All grades): 0 n (%)
- Vomiting (treatment-related AE) (All grades): 4 (12.5) n (%)
- Weight decreased (treatment-related AE) (All grades): 0 n (%)
- γ-Glutamyltransferase increased (treatment-related AE) (All grades): 1 (3.1) n (%)
- Abdominal distension (treatment-related AE) (Grade 3): 0 n (%)
- Activated partial thromboplastin time prolonged (treatment-related AE) (Grade 3): 0 n (%)
- Alanine aminotransferase increased (treatment-related AE) (Grade 3): 5 (15.6) n (%)
- Ammonia increased (treatment-related AE) (Grade 3): 0 n (%)
- Anemia (treatment-related AE) (Grade 3): 0 n (%)
- Aspartate aminotransferase increased (treatment-related AE) (Grade 3): 3 (9.4) n (%)
- Blood alkaline phosphatase increased (treatment-related AE) (Grade 3): 1 (3.1) n (%)
- Blood bilirubin increased (treatment-related AE) (Grade 3): 0 n (%)
- Blood creatinine increased (treatment-related AE) (Grade 3): 1 (3.1) n (%)
- Constipation (treatment-related AE) (Grade 3): 0 n (%)
- Decreased appetite (treatment-related AE) (Grade 3): 0 n (%)
- Diarrhea (treatment-related AE) (Grade 3): 0 n (%)
- Dysgeusia (treatment-related AE) (Grade 3): 0 n (%)
- Dyspepsia (treatment-related AE) (Grade 3): 0 n (%)
- Fatigue (treatment-related AE) (Grade 3): 0 n (%)
- Gastroesophageal reflux disease (treatment-related AE) (Grade 3): 0 n (%)
- Hypomagnesemia (treatment-related AE) (Grade 3): 0 n (%)
- Hyponatremia (treatment-related AE) (Grade 3): 0 n (%)
- Nausea (treatment-related AE) (Grade 3): 0 n (%)
- Neuropathy peripheral (treatment-related AE) (Grade 3): 0 n (%)
- Patients with ≥1 treatment-emergent AE (Grade 3): 9 (28.1) n (%)
- Patients with ≥1 treatment-related AE (Grade 3): 4 (12.5) n (%)
- Photophobia (treatment-related AE) (Grade 3): 0 n (%)
- Photopsia (treatment-related AE) (Grade 3): 0 n (%)
- Thrombocytopenia (treatment-related AE) (Grade 3): 0 n (%)
- Vision blurred (treatment-related AE) (Grade 3): 0 n (%)
- Vomiting (treatment-related AE) (Grade 3): 0 n (%)
- Weight decreased (treatment-related AE) (Grade 3): 0 n (%)
- γ-Glutamyltransferase increased (treatment-related AE) (Grade 3): 0 n (%)
- Abdominal distension (treatment-related AE) (Grade 4): 0 n (%)
- Activated partial thromboplastin time prolonged (treatment-related AE) (Grade 4): 0 n (%)
- Alanine aminotransferase increased (treatment-related AE) (Grade 4): 0 n (%)
- Ammonia increased (treatment-related AE) (Grade 4): 0 n (%)
- Anemia (treatment-related AE) (Grade 4): 0 n (%)
- Aspartate aminotransferase increased (treatment-related AE) (Grade 4): 2 (6.3) n (%)
- Blood alkaline phosphatase increased (treatment-related AE) (Grade 4): 0 n (%)
- Blood bilirubin increased (treatment-related AE) (Grade 4): 0 n (%)
- Blood creatinine increased (treatment-related AE) (Grade 4): 0 n (%)
- Constipation (treatment-related AE) (Grade 4): 0 n (%)
- Decreased appetite (treatment-related AE) (Grade 4): 0 n (%)
- Diarrhea (treatment-related AE) (Grade 4): 0 n (%)
- Dysgeusia (treatment-related AE) (Grade 4): 0 n (%)
- Dyspepsia (treatment-related AE) (Grade 4): 0 n (%)
- Fatigue (treatment-related AE) (Grade 4): 0 n (%)
- Gastroesophageal reflux disease (treatment-related AE) (Grade 4): 0 n (%)
- Hypomagnesemia (treatment-related AE) (Grade 4): 0 n (%)
- Hyponatremia (treatment-related AE) (Grade 4): 0 n (%)
- Nausea (treatment-related AE) (Grade 4): 0 n (%)
- Neuropathy peripheral (treatment-related AE) (Grade 4): 0 n (%)
- Patients with ≥1 treatment-emergent AE (Grade 4): 3 (9.4) n (%)
- Patients with ≥1 treatment-related AE (Grade 4): 3 (9.4) n (%)
- Photophobia (treatment-related AE) (Grade 4): 0 n (%)
- Photopsia (treatment-related AE) (Grade 4): 0 n (%)
- Thrombocytopenia (treatment-related AE) (Grade 4): 0 n (%)
- Vision blurred (treatment-related AE) (Grade 4): 0 n (%)
- Vomiting (treatment-related AE) (Grade 4): 0 n (%)
- Weight decreased (treatment-related AE) (Grade 4): 0 n (%)
- γ-Glutamyltransferase increased (treatment-related AE) (Grade 4): 1 (3.1) n (%)
- Incidence of treatment-related grade 3/4 AEs (TID-fasted, 7/32): 22%
- Patients with treatment-related AEs of any grade (across doses and schedules, 87/120 patients): 72.5%
- ALT increased, treatment-related AE of any grade [1]: 17%
- AST increased, treatment-related AE of any grade [1]: 13%
- Fatigue, treatment-related AE of any grade [1]: 23%
- Nausea, treatment-related AE of any grade [1]: 19%
- Photophobia, treatment-related AE of any grade [1]: 11%
- Patients who died during the study-reporting period (all due to progressive disease (PD)): Seven
- DLTs (dose escalation, BID-fed schedule): No DLTs
- Hy's Law criteria (drug-induced liver injury) (either schedule): no patients on either schedule met criteria for the Hy's Law; also recorded: no cases of drug-induced liver injury according to the Hy's law criteria
- Patients with treatment-related SAEs (four SAEs: ALT and AST increase (400 mg TID), blood creatinine increase (250 mg TID), grade 2 convulsion (1,000 mg BID)): 3 patients
